What was measured:
[1] = molecular target: T1, human recombinant serotonin (5-Hydroxytryptamine) 5-HT6 receptor (Homo sapiens, UniProt P50406); experiment: Serotonin 5-HT6 radioligand binding assay; details: [3H]LSD specific binding, read-out: Percent Inhibition of ligand binding, Serotonin (1 μM ligand concentration) 5-HT6
T1 construct: expressed in transfected cells; host or cells: human HeLa cells
Experimental: To evaluate in radioligand binding assays the activity of compounds of the invention, human recombinant serotonin (5-Hydroxytryptamine) 5-HT6 receptor expressed in human HeLa cells [Monsma, F. J. Jr et al., Mol. Pharmacol. (1993), 43:320] in a modified Tris-HCl buffer (50 mM Tris-HCl, pH 7.4, 150 mM NaCl, 2 mM Ascorbic Acid, 0.001% BSA) was used. Compounds of the invention were incubated with 1.5 nM [3H]Lysergic acid diethylamide (LSD) for 120 min. at 37° C. Non-specific binding was estimated in the presence of 5 μM Serotonin (5-HT). Receptor proteins were filtered and washed, the filters were then counted to determine[3H]LSD specifically bound. Compounds were screened at 1 μM or lower, using 1% DMSO as vehicle. Biochemical assay results are presented as the percent inhibition of specific binding in Table 4.

[2] = molecular target: human recombinant histamine H1 receptor (Homo sapiens, UniProt P35367); experiment: Histamine H1 radioligand binding assay; details: [3H]Pyrilamine specific binding; for inhibition at 1 µM: read-out: Percentage Inhibition, Histamine Binding (1 μM) H1
human recombinant histamine H1 receptor, sequence (P35367 whole entry): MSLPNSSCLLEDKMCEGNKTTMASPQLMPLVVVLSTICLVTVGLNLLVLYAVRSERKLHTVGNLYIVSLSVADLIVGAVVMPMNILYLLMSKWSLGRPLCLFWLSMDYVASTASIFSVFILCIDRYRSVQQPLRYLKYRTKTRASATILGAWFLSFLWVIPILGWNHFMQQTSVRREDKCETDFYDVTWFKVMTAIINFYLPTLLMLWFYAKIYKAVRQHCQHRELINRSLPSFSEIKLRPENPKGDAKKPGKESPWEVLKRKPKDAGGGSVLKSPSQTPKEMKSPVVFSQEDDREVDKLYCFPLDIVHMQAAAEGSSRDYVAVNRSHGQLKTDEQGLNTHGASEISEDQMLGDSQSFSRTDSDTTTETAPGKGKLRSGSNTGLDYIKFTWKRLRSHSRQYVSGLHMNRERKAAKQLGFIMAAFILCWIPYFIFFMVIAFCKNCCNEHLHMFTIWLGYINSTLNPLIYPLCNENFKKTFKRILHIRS
Experimental: To evaluate in radioligand binding assays the activity of compounds of the invention, human recombinant histamine H1 receptor expressed in Chinese hamster ovary (CHO) cells [De Backer, M. D. et al., Biochem. Biophys. Res. Comm. (1993), 197(3):1601] in a modified Tris-HCl buffer (50 mM Tris-HCl, pH 7.4, 2 mM MgCl2, 100 mM NaCl, 250 mM Sucrose) was used. Compounds of the invention were incubated with 1.2 nM [^3H]Pyrilamine for 180 min. at 25° C. Non-specific binding was estimated in the presence of 1 μM pyrilamine. Receptor proteins were filtered and washed, the filters were then counted to determine [^3H]Pyrilamine specifically bound. Compounds were screened at 1 μM or lower, using 1% DMSO as vehicle. Biochemical assay results are presented as the percent inhibition of specific binding in Table 2.

[3] = molecular target: T2, human recombinant adrenergic α2A receptor (Homo sapiens, UniProt P08913); experiment: Adrenergic α2A radioligand binding assay; details: 1 μM; [3H]MK-912 specific binding; read-out: Percent Inhibition of ligand binding, Adrenergic (1 μM ligand conc.) α2A
T2 construct: expressed in transfected cells; host or cells: insect Sf9 cells
T2 sequence (P08913 1-465): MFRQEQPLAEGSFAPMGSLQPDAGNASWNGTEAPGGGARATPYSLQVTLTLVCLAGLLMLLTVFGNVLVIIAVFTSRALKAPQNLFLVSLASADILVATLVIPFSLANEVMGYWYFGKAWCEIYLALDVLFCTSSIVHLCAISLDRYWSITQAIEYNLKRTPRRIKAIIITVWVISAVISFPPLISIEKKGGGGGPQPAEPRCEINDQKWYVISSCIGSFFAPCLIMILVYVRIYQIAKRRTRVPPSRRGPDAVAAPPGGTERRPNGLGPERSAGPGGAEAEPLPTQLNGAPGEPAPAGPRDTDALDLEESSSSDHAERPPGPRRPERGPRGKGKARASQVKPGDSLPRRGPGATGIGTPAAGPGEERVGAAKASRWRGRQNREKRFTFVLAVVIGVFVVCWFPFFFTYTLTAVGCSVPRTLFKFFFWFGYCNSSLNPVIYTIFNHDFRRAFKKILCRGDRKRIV
Experimental: To evaluate in radioligand binding assays the activity of compounds of the invention, human recombinant adrenergic α2A receptor expressed in insect Sf9 cells [Uhlen, S et al. J. Pharmacol. Exp. Ther. (1994), 271:1558] in a modified Tris-HCl buffer (50 mM Tris-HCl, pH 7.4, 12.5 mM MgCl2, 2 mM EDTA) was used. Compounds of invention were incubated with 1 nM [^3H]MK-912 for 60 min. at 25° C. MK912 was (2S-trans)-1,3,4,5′,6,6′,7,12b-octahydro-1′,3′-dimethyl-spiro[2H-benzofuro[2,3-a]quinolizine-2,4′(1′H)-pyrimidin]-2′(3′H)-one hydrochloride Non-specific binding was estimated in the presence of 10 μM WB-4101 (2-(2,6-dimethoxyphenoxyethyl)aminomethyl-1,4-benzodioxane hydrochloride). Receptor proteins were filtered and washed, the filters were then counted to determine [^3H]MK-912 specifically bound. Compounds were screened at 1 μM or lower, using 1% DMSO as vehicle. Compounds of the invention were tested in this biochemical assay. Biochemical assay results for representative compounds were presented as the percent inhibition of specific binding in Table 3.

[4] = molecular target: T3, human recombinant adrenergic α2B receptor (Homo sapiens, UniProt P18089); experiment: Adrenergic α2B radioligand binding assay; details: 1 μM; [3H]Rauwolscine specific binding; read-out: Percent Inhibition of ligand binding, Adrenergic (1 μM ligand conc.) α2B
T3 construct: expressed in transfected cells; host or cells: Chinese hamster ovary (CHO-K1) cells
T3 sequence (P18089 1-450): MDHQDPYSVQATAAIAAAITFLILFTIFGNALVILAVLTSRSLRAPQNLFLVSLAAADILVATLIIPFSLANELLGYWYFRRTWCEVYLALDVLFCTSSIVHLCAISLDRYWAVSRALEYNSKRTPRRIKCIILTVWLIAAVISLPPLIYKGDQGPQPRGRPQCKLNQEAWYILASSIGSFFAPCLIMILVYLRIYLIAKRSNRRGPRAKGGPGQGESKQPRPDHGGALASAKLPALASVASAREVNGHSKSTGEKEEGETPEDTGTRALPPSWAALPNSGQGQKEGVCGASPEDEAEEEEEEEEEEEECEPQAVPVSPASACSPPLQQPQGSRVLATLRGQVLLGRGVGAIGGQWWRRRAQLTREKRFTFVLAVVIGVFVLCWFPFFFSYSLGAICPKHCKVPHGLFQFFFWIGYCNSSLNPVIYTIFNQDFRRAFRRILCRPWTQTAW
Experimental: To evaluate in radioligand binding assays the activity of compounds of the invention, human recombinant adrenergic α2B receptor expressed in Chinese hamster ovary (CHO-K1) cells [Uhlen, S et al., Eur J Pharmacol. (1998), 343(1):93] in a modified Tris-HCl buffer (50 mM Tris-HCl, pH 7.4, 12.5 mM MgCl2, 1 mM EDTA, 0.2% BSA) was used. Compounds of the invention were incubated with 2.5 nM [^3H]Rauwolscine for 60 min. at 25° C. Non-specific binding was estimated in the presence of 10 μM Prozosin. Receptor proteins were filtered and washed, the filters were then counted to determine [^3H]Rauwolscine specifically bound. Compounds were screened at 1 μM or lower, using 1% DMSO as vehicle. Compounds of the invention were tested in this biochemical assay. Biochemical assay results for representative compounds were presented as the percent inhibition of specific binding in Table 3.

T1 sequence (P50406 whole entry): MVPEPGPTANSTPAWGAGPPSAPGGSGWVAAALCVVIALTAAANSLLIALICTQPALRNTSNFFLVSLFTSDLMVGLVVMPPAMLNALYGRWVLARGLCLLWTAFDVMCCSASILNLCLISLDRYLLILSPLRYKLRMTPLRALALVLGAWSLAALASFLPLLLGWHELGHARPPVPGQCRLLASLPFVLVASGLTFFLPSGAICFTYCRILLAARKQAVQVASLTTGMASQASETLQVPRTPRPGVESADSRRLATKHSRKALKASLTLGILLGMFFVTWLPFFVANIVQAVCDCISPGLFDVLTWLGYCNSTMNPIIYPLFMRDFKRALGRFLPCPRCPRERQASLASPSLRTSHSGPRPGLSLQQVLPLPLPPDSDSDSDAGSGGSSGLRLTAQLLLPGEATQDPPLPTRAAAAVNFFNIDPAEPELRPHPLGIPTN

Row | Compound | inhibition at 1 µM [1] [%] | inhibition at 1 µM [2] [%] | inhibition at 1 µM [3] [%] | inhibition at 1 µM [4] [%] | Percentage Inhibition, Histamine Binding (1 μM) H1 ([2]; 1 µM) [%]
1 | Cc1ccc2c(c1)c1c(n2CCc2ccc(C(F)(F)F)nc2)CN2CCC1C2 (stereo not drawn) [Compound 1] | 10 | 32 | 25 | 7 | –
2 | Cc1ccc2c(c1)c1c(n2CC(C)(O)c2ccc(F)cc2)CN2CCC1C2 (stereo not drawn) [Compound 2] | 58 | 21 | 54 | 84 | –
3 | C=C(Cn1c2c(c3cc(C)ccc31)C1CCN(C2)C1)c1ccc(F)cc1 (stereo not drawn) [Compound 3] | 105 | 59 | 93 | 93 | 60
4 | Cc1ccc2c(c1)c1c(n2CC(O)c2ccccc2)CN2CCC1C2 (stereo not drawn) [Compound 4] | 56 | 67 | 54 | 89 | –
5 | Cc1ccc(C(O)Cn2c3c(c4cc(C)ccc42)C2CCN(C3)C2)cc1 (stereo not drawn) [Compound 5] | 14 | 48 | 44 | 78 | –
6 | COc1ccc(C(O)Cn2c3c(c4cc(C)ccc42)C2CCN(C3)C2)cc1F (stereo not drawn) [Compound 6] | 22 | 86 | 23 | 73 | –
7 | Cc1ccc2c(c1)c1c(n2CC(=O)N2CCCCC2)CN2CCC1C2 (stereo not drawn) [Compound 7] | 0 | 17 | 9 | 0 | –
8 | COc1ccc(C(O)Cn2c3c(c4cc(C)ccc42)C2CCN(C3)C2)cc1OC (stereo not drawn) [Compound 8] | 11 | 33 | 1 | 34 | –
9 | Cc1ccc2c(c1)c1c(n2CCc2cncc(F)c2)CN2CCC1C2 (stereo not drawn) [Compound 9] | 40 | 89 | 2 | 45 | –
10 | Cc1ccc(/C=C/n2c3c(c4cc(C)ccc42)C2CCN(C3)C2)cc1 (stereo not drawn) [Compound 10] | -4 | 70 | 38 | 66 | –
11 | Cc1ccc2c(c1)c1c(n2CCc2ccccn2)CN2CCC1C2 (stereo not drawn) [Compound 11] | 20 | 77 | -15 | 48 | –
12 | Cc1ccc2c(c1)c1c(n2CCc2ccc(C)nc2)CN2CCC1C2 (stereo not drawn) [Compound 12] | 2 | 59 | -4 | 16 | –
13 | Cc1ccc2c(c1)c1c(n2CC(C)(O)c2ccc(Cl)c(Cl)c2)CN2CCC1C2 (stereo not drawn) [Compound 13] | 17 | 24 | 39 | 99 | –
14 | Cc1ccc2c(c1)c1c(n2CC(C)(O)c2ccc(Cl)cc2Cl)CN2CCC1C2 (stereo not drawn) [Compound 14] | 1 | 37 | 18 | 68 | –
15 | Cc1ccc2c(c1)c1c(n2CC(C)(O)c2ccc(F)c(F)c2)CN2CCC1C2 (stereo not drawn) [Compound 15] | 59 | 82 | 21 | 106 | –
16 | Cc1ccc2c(c1)c1c(n2CC(C)(O)c2ccc(Cl)cc2)CN2CCC1C2 (stereo not drawn) [Compound 16] | 29 | 20 | 28 | 103 | –
17 | Cc1ccc2c(c1)c1c(n2CC(C)(O)c2ccc(F)cc2F)CN2CCC1C2 (stereo not drawn) [Compound 17] | 9 | 16 | 4 | 90 | –
18 | Cc1ccc2c(c1)c1c(n2CC(C)(O)c2ccc(F)c(Cl)c2)CN2CCC1C2 (stereo not drawn) [Compound 18] | 49 | 21 | 30 | 107 | –
19 | Cc1ccc2c(c1)c1c(n2CCc2nc(-c3ccccc3)cs2)CN2CCC1C2 (stereo not drawn) [Compound 19] | 9 | 82 | -10 | 61 | –
20 | Cc1ccc(C(C)(O)Cn2c3c(c4cc(C)ccc42)C2CCN(C3)C2)cc1 (stereo not drawn) [Compound 20] | 13 | 21 | 28 | 97 | –
21 | Cc1ccc2c(c1)c1c(n2CC(=O)c2ccccc2)CN2CCC1C2 (stereo not drawn) [Compound 21] | 29 | 40 | 5 | 20 | –
22 | Cc1ccc2c(c1)c1c(n2C#Cc2ccc(Cl)cc2)CN2CCC1C2 (stereo not drawn) [Compound 35] | 12 | 0 | – | – | –
23 | C/C(=C/n1c2c(c3cc(C)ccc31)C1CCN(C2)C1)c1ccccc1F (stereo not drawn) [Compound 37] | 70 | 78 | – | – | –
24 | C/C(=C\n1c2c(c3cc(C)ccc31)C1CCN(C2)C1)c1ccc(F)c(F)c1 (stereo not drawn) [Compound 39] | 81 | 26 | – | – | –
25 | C/C(=C\n1c2c(c3cc(C)ccc31)C1CCN(C2)C1)c1ccc(Cl)c(Cl)c1 (stereo not drawn) [Compound 40] | 12 | 57 | – | – | –
26 | COc1ccc(/C(C)=C/n2c3c(c4cc(C)ccc42)C2CCN(C3)C2)cc1F (stereo not drawn) [Compound 41] | 48 | 21 | – | – | –
27 | C/C(=C\n1c2c(c3cc(C)ccc31)C1CCN(C2)C1)c1cccnc1 (stereo not drawn) [Compound 42] | 26 | 20 | – | – | –
28 | Cc1ccc2c(c1)c1c(n2C(=O)Cc2ccc(F)cc2)CN2CCC1C2 (stereo not drawn) [Compound 43] | 7 | 16 | – | – | –

Reference: patent US9271971B2, “Pyrido[3,4-B]indoles and methods of use” (Medivation Technologies, Inc., priority 2009, dated 2016)
